PubChem BioAssay (NCI)
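Interpolation was linear, between the two tested concentrations surrounding the appropriate level; five concentrations were tested over 48 hours in 96-well plates. GI50 = concentration required for 50% inhibition of growth. The concentration for full growth arrest is given as TGI.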

How the values were obtained:
Experiment in all cases: NCI anticancer screen, dose series, 48 h
[1] = system: K-562 leukemia
[2] = system: ACHN renal
[3] = system: OVCAR-3 ovarian
[4] = system: HCT-15 colon
[5] = system: IGROV1 ovarian
[6] = system: HCT-116 colon
[7] = system: OVCAR-8 ovarian
[8] = system: U251 CNS
[9] = system: MCF7 breast
[10] = system: SK-MEL-5 melanoma
[11] = system: SK-MEL-28 melanoma
[12] = system: RXF 393 renal
[13] = system: OVCAR-5 ovarian
[14] = system: UACC-257 melanoma
[15] = system: RPMI-8226 leukemia
[16] = system: SN12C renal
[17] = system: TK-10 renal
[18] = system: CCRF-CEM leukemia
[19] = system: DU-145 prostate
[20] = system: PC-3 prostate
[21] = system: A498 renal
[22] = system: MDA-MB-231 breast
[23] = system: SK-MEL-2 melanoma
[24] = system: SNB-19 CNS
[25] = system: SF-539 CNS
[26] = system: MALME-3M melanoma
[27] = system: M14 melanoma
[28] = system: HCC-2998 colon
[29] = system: SF-268 CNS
[30] = system: SNB-75 CNS
[31] = system: MOLT-4 leukemia
[32] = system: NCI-H460 lung
[33] = system: CAKI-1 renal
[34] = system: 786-0 renal
[35] = system: OVCAR-4 ovarian
[36] = system: BT-549 breast
[37] = system: UO-31 renal
[38] = system: SW-620 colon
[39] = system: SR leukemia
[40] = system: NCI-H522 lung
[41] = system: UACC-62 melanoma
[42] = system: MDA-MB-435
[43] = system: EKVX NSCLC
[44] = system: SF-295 CNS
[45] = system: NCI-H23 lung
[46] = system: HL-60(TB) leukemia
[47] = system: LOX IMVI melanoma
[48] = system: NCI/ADR-RES ovarian
[49] = system: HS 578T breast
[50] = system: KM12 colon
[51] = system: HOP-92 NSCLC

With CN1CCN(CCOc2ccc(-c3cnc4c(-c5cccc(F)c5F)cnn4c3)cc2)CC1 the GI50 [1] was 1660 nM, the TGI [1] was 3530 nM and the GI50 [2] was 1620 nM. The TGI [2] was 2970 nM, the GI50 [3] was 1710 nM and the TGI [3] was 3420 nM. It also gave a GI50 [4] of 1480 nM, a TGI [4] of 2910 nM and a GI50 [5] of 1610 nM. It also gave a TGI [5] of 3270 nM, a GI50 [6] of 1660 nM and a TGI [6] of 3040 nM. For the same molecule, the GI50 [7] was 2100 nM, the TGI [7] was 5260 nM and the GI50 [8] was 1440 nM. The TGI [8] was 2940 nM, the GI50 [9] was 1320 nM and the TGI [9] was 2950 nM. The GI50 [10] was 1670 nM, the TGI [10] was 3070 nM and the GI50 [11] was 1770 nM. The TGI [11] was 3260 nM, the GI50 [12] was 1690 nM and the TGI [12] was 3490 nM. For the same molecule, the GI50 [13] was 1990 nM, the TGI [13] was 4430 nM and the GI50 [14] was 1770 nM. It also gave a TGI [14] of 3490 nM, a GI50 [15] of 1450 nM and a TGI [15] of 4010 nM. The GI50 [16] was 2080 nM, the TGI [16] was 4670 nM and the GI50 [17] was 2010 nM. The TGI [17] was 3620 nM, the GI50 [18] was 1550 nM and the TGI [18] was 3810 nM. The GI50 [19] was 1690 nM, the TGI [19] was 3440 nM and the GI50 [20] was 1960 nM. It also gave a TGI [20] of 5640 nM, a GI50 [21] of 5410 nM and a TGI [21] of 19700 nM. It also gave a GI50 [22] of 1600 nM, a TGI [22] of 3360 nM and a GI50 [23] of 15500 nM. The TGI [23] was 31000 nM, the GI50 [24] was 1910 nM and the TGI [24] was 3880 nM. For the same molecule, the GI50 [25] was 1740 nM, the TGI [25] was 3170 nM and the GI50 [26] was 1530 nM. It also gave a TGI [26] of 3010 nM, a GI50 [27] of 1710 nM and a TGI [27] of 3200 nM. It also gave a GI50 [28] of 11700 nM, a TGI [28] of 24700 nM and a GI50 [29] of 2150 nM. It also gave a TGI [29] of 5240 nM, a GI50 [30] of 1410 nM and a TGI [30] of 2730 nM. It also gave a GI50 [31] of 1600 nM, a TGI [31] of 3530 nM and a GI50 [32] of 1670 nM. For the same molecule, the TGI [32] was 3190 nM, the GI50 [33] was 1520 nM and the TGI [33] was 2910 nM. The GI50 [34] was 1630 nM, the TGI [34] was 3070 nM and the GI50 [35] was 1280 nM. For the same molecule, the TGI [35] was 2950 nM, the GI50 [36] was 1570 nM and the TGI [36] was 3150 nM. It also gave a GI50 [37] of 1250 nM, a TGI [37] of 2550 nM and a GI50 [38] of 1860 nM. For the same molecule, the TGI [38] was 3590 nM, the GI50 [39] was 282 nM and the TGI [39] was 1160 nM. For the same molecule, the GI50 [40] was 1590 nM, the TGI [40] was 3270 nM and the GI50 [41] was 1840 nM. For the same molecule, the TGI [41] was 3610 nM, the GI50 [42] was 1680 nM and the TGI [42] was 3070 nM. For the same molecule, the GI50 [43] was 1590 nM, the TGI [43] was 3750 nM and the GI50 [44] was 1800 nM. It also gave a TGI [44] of 3330 nM, a GI50 [45] of 1700 nM and a TGI [45] of 3330 nM. The GI50 [46] was 1910 nM, the TGI [46] was 3790 nM and the GI50 [47] was 1800 nM. For the same molecule, the TGI [47] was 3340 nM, the GI50 [48] was 2210 nM and the TGI [48] was 5490 nM. For the same molecule, the GI50 [49] was 1910 nM, the TGI [49] was 4740 nM and the GI50 [50] was 1720 nM. The TGI [50] was 3390 nM, the GI50 [51] was 4140 nM and the TGI [51] was 26400 nM.
